# System: NCI-H358 cells expressing KRAS-G12C
# Test: Cell proliferation assay (Cell Titer Glo), NCI-H358
# Assay type: cell-based
# Conditions: Homo sapiens, 72 h, ATP content (Cell Titer Glo)
# Protocol: (§1) The ability of the compounds of the present disclosure to inhibit the growth of KRAS-G12C-expressing cells was assessed by measuring cell viability and calculating GI50 values.
# (§2) Tumor cell line NCI-H358 (ATCC accession No. CRL-5807) expressing KRAS-G12C was cultured in an RPMI medium supplemented with 10% fetal bovine serum and penicillin/streptomycin double antibody; tumor cell line MIA PaCa2 (ATCC CRL-1420) expressing KRAS-G12C was cultured in a DMEM medium supplemented with 10% fetal bovine serum, 2.5% horse serum and penicillin/streptomycin double antibody.
# (§3) NCI-H358 and MIA-Paca2 cells were seeded on a black clear-bottom 384-well plate (PerkinElmer Cat. No. 6007460) at densities of 1000 and 800 cells, respectively, and allowed to adhere to the walls overnight (8-12 h). After the cells adhered to the walls, the diluted compounds of the present disclosure with a concentration that was 5 times that of the working solution (containing 0.1% dimethyl sulfoxide, namely DMSO, at the final concentration) was added to the experimental groups; the same dilution (containing 0.1% DMSO at the final concentration) as in the experimental groups was added to the control group. After 72 h, the amount of cell proliferation was measured by measuring ATP content using a Cell Titer Glo reagent (Promega Cat. No. G7572) according to the method described in the manuals. Steps are briefly as follows: the cell plate was taken out and equilibrated at normal temperature for 30 min; the Cell Titer Glo reagent with an equal volume to that of the culture was added; the culture plate was placed on a shaker for lysis for 2 min; the culture plate was left standing at normal temperature for 10 min; the optical signal values were read using a microplate reader EnVision (PerkinElmer).
# (§4) The inhibition percentages were calculated from the data of the experimental groups relative to the DMSO group, and GI50 was calculated using the data processing software GraphPad by analyzing the inhibitory rates yielded by 9 dosing concentrations produced by 1:3 dilution of the compounds, with the results shown in Table 2.
row,GI50 [nM],SMILES
1,10,C=CC(=O)N1CCN2c3nc(=O)n(-c4c(C)ccnc4C(C)C)c4cc(-c5c(N)cccc5F)c(F)c(c34)OC[C@H]2C1 [Compound 12A]
2,29,C=CC(=O)N1CCN2c3nc(=O)n(-c4c(C)ccnc4C(C)C)c4cc(-c5c(O)cccc5F)c(F)c(c34)OC[C@H]2C1 [Compound 2A]
3,3430,"C=CC(=O)N1CCN2c3nc(=O)n(-c4c(C)ccnc4C(C)C)c4c(F)c(-c5c(O)cccc5F)c(F)c(c34)OC[C@H]2C1 (atropisomer, axis not shown) [Compound 15A]"
4,133,"C=CC(=O)N1CCN2c3nc(=O)n(-c4c(C)ccnc4C(C)C)c4nc(-c5c(O)cccc5F)c(F)c(c34)OC[C@H]2C1 (atropisomer, axis not shown) [Compound 7A]"
5,111,"C=CC(=O)N1CCN2c3nc(=O)n(-c4c(C)ccnc4C(C)C)c4c(F)c(-c5c(O)cccc5F)nc(c34)OC[C@H]2C1 (atropisomer, axis not shown) [Compound 10A]"
6,34,"C=CC(=O)N1CCN2c3nc(=O)n(-c4c(C)ccnc4C(C)C)c4cc(-c5c(O)ccc(F)c5F)c(F)c(c34)OC[C@H]2C1 (atropisomer, axis not shown) [Compound 4A]"
7,350,"C=CC(=O)N1C[C@@H]2COc3c(F)c(-c4c(O)cccc4F)nc4c3c(nc(=O)n4-c3c(C)ccnc3C(C)C)N2[C@@H](C)C1 (single isomer, unassigned) [Compound 8A]"
8,70,"C=CC(=O)N1CCN2c3nc(=O)n(-c4c(C)ccnc4C(C)C)c4cc(-c5c(N)c(Cl)cc(Cl)c5F)c(F)c(c34)OC[C@H]2C1 (atropisomer, axis not shown) [Compound 11A]"
9,320,C=CC(=O)N1CCN(c2nc(=O)n(-c3c(C)ccnc3C(C)C)c3c(F)c(-c4c(O)cccc4F)ncc23)[C@@H](C)C1 [Compound 13]

row,SMILES,GI50 [nM]
1,C=CC(=O)N1CCN(c2ncnc3c(F)c(-c4c(O)cccc4F)c(Cl)cc23)CC1 [ARS-1620],510

# System: MIA PaCa2 cells expressing KRAS-G12C
# Test: Cell proliferation assay (Cell Titer Glo), MIA PaCa2
# Assay type: cell-based
# Conditions: Homo sapiens, MIA PaCa-2, 72 h, ATP content (Cell Titer Glo)
# Protocol: as §1, §2, §3, §4
row,GI50 [nM],SMILES
1,54,C=CC(=O)N1CCN2c3nc(=O)n(-c4c(C)ccnc4C(C)C)c4cc(-c5c(N)cccc5F)c(F)c(c34)OC[C@H]2C1 [Compound 12A]
2,48,C=CC(=O)N1CCN2c3nc(=O)n(-c4c(C)ccnc4C(C)C)c4cc(-c5c(O)cccc5F)c(F)c(c34)OC[C@H]2C1 [Compound 2A]
3,4520,"C=CC(=O)N1CCN2c3nc(=O)n(-c4c(C)ccnc4C(C)C)c4c(F)c(-c5c(O)cccc5F)c(F)c(c34)OC[C@H]2C1 (atropisomer, axis not shown) [Compound 15A]"
4,629,"C=CC(=O)N1CCN2c3nc(=O)n(-c4c(C)ccnc4C(C)C)c4nc(-c5c(O)cccc5F)c(F)c(c34)OC[C@H]2C1 (atropisomer, axis not shown) [Compound 7A]"
5,333,"C=CC(=O)N1CCN2c3nc(=O)n(-c4c(C)ccnc4C(C)C)c4c(F)c(-c5c(O)cccc5F)nc(c34)OC[C@H]2C1 (atropisomer, axis not shown) [Compound 10A]"
6,324,"C=CC(=O)N1CCN2c3nc(=O)n(-c4c(C)ccnc4C(C)C)c4cc(-c5c(O)ccc(F)c5F)c(F)c(c34)OC[C@H]2C1 (atropisomer, axis not shown) [Compound 4A]"
7,304,"C=CC(=O)N1C[C@@H]2COc3c(F)c(-c4c(O)cccc4F)nc4c3c(nc(=O)n4-c3c(C)ccnc3C(C)C)N2[C@@H](C)C1 (single isomer, unassigned) [Compound 8A]"
8,685,"C=CC(=O)N1CCN2c3nc(=O)n(-c4c(C)ccnc4C(C)C)c4cc(-c5c(N)c(Cl)cc(Cl)c5F)c(F)c(c34)OC[C@H]2C1 (atropisomer, axis not shown) [Compound 11A]"
9,1270,C=CC(=O)N1CCN(c2nc(=O)n(-c3c(C)ccnc3C(C)C)c3c(F)c(-c4c(O)cccc4F)ncc23)[C@@H](C)C1 [Compound 13]

row,SMILES,GI50 [nM]
1,C=CC(=O)N1CCN(c2ncnc3c(F)c(-c4c(O)cccc4F)c(Cl)cc23)CC1 [ARS-1620],1210

# System: pERK (Thr202/Tyr204) in NCI-H358 cells expressing mutant RAS (G12C)
# Test: Inhibition of RAS-mediated signal transduction: p-ERK ELISA normalized to Janus green
# Assay type: cell-based
# Conditions: Homo sapiens, NCI-H358, 2 h, NCI-H358 cells, 2 hours of treatment, ELISA; read-out: p-ERK IC50 (NCI H358)
# Protocol: NCI-H358 cells (ATCC accession No. CRL-5807) expressing mutant RAS (G12C) were cultured in an RPMI medium containing 10% fetal bovine serum, penicillin/streptomycin double antibody. The cells were plated on to a 96-well plate (Corning Cat. No. 3699) at 40,000 cells per well and left standing overnight to adhere to the bottom of the plate. The cells were treated with or without the compounds of the present disclosure (dimethylsulfoxide, DMSO), with a final DMSO concentration of 0.5% ensured. After 2 hours of treatment, the medium was removed, and 4% paraformaldehyde (Beyotime Cat. No. E672002-0100) was added. The resulting mixture was left standing for 20 min. After being immobilized, the cells were washed with PBS and incubated with pre-cooled methanol for 10 min to permeabilize the cell membrane. Non-specific antibody binding was blocked by incubation for 1 h with 1× blocking buffer (Thermo Cat. No. 37520).
# The ERK phosphorylation level was detected by enzyme-linked immunosorbent assay (ELISA). A phospho-ERK antibody (Cell Signal Technology Cat. No. 4370) was 1:400 diluted with 1× blocking solution containing 0.05% tween 20 and added to the 96-well plate for overnight incubation at 4° C. The plate was washed 5 times with PBS containing 0.05% tween 20. An HRP-conjugated secondary antibody (Thermo Cat. No. 31460) was 1:10,000 diluted with 1× blocking buffer containing 0.05% tween 20 and added to the 96-well plate for incubation for 2 h at room temperature. The plate was washed 5 times with PBS containing 0.05% Tween and incubated with TMB (Thermo Cat. No. 4816) at room temperature for 15 min. The reaction was terminated with 1 mol/L H2SO4, and the OD values were read at a wavelength of 450 nm using an EnVision (PerkinElmer).
# The total number of cells per well was measured using the Janus green staining method. The 96-well plate after the detection of the ERK phosphorylation level was washed to colorlessness with PBS and incubated with 0.1% Janus green (Abcam Cat. No. ab111622) for 10 min. After washing with double distilled water, the plate was incubated with 0.1 mol/L HCl with shaking for 10 min. The OD values were read at a wavelength of 595 nm using an EnVision (PerkinElmer).
# The signal values of pERK (Thr202/Tyr204) were normalized using the signal values of Janus green, and the inhibition percentages relative to the DMSO reference were calculated after treatment with the drugs. The percentage values were subjected to four-parameter dose response curve fitting to generate IC50 values.
row,SMILES,IC50 [µM]
1,C=CC(=O)N1CCN2c3nc(=O)n(-c4c(C)ccnc4C(C)C)c4cc(-c5c(N)cccc5F)c(F)c(c34)OC[C@H]2C1 [Compound 12A],0.032
2,C=CC(=O)N1CCN2c3nc(=O)n(-c4c(C)ccnc4C(C)C)c4cc(-c5c(O)cccc5F)c(F)c(c34)OC[C@H]2C1 [Compound 2A],0.053
3,"C=CC(=O)N1CCN2c3nc(=O)n(-c4c(C)ccnc4C(C)C)c4c(F)c(-c5c(O)cccc5F)c(F)c(c34)OC[C@H]2C1 (atropisomer, axis not shown) [Compound 15A]",6.36
4,"C=CC(=O)N1CCN2c3nc(=O)n(-c4c(C)ccnc4C(C)C)c4nc(-c5c(O)cccc5F)c(F)c(c34)OC[C@H]2C1 (atropisomer, axis not shown) [Compound 7A]",0.196
5,"C=CC(=O)N1CCN2c3nc(=O)n(-c4c(C)ccnc4C(C)C)c4cc(-c5c(C)ccc6[nH]ncc56)c(F)c(c34)OC[C@H]2C1 (atropisomer, axis not shown) [Compound 6A]",1.77
6,"C=CC(=O)N1CCN2c3nc(=O)n(-c4c(C)ccnc4C(C)C)c4c(F)c(-c5c(O)cccc5F)nc(c34)OC[C@H]2C1 (atropisomer, axis not shown) [Compound 10A]",0.065
7,C=CC(=O)N1CCN2c3nc(=O)n(-c4c(C)ccnc4C(C)C)c4c(F)c(-c5c(O)cccc5F)nc(c34)OC[C@@H]2C1 [Compound 3],0.647
8,"C=CC(=O)N1CCN2c3nc(=O)n(-c4c(C)ccnc4C(C)C)c4cc(-c5c(O)ccc(F)c5F)c(F)c(c34)OC[C@H]2C1 (atropisomer, axis not shown) [Compound 4A]",0.038
9,C=CC(=O)N1CCN2c3nc(=O)n(-c4c(C)ccnc4C(C)C)c4cc(-c5c(F)ccc6cc[nH]c(=O)c56)c(F)c(c34)OC[C@H]2C1 [Compound 14A],> 10
10,"C=CC(=O)N1C[C@@H]2COc3c(F)c(-c4c(O)cccc4F)nc4c3c(nc(=O)n4-c3c(C)ccnc3C(C)C)N2[C@@H](C)C1 (single isomer, unassigned) [Compound 8A]",0.26
11,"C=CC(=O)N1CCN2c3nc(=O)n(-c4c(C)ccnc4C(C)C)c4cc(-c5c(N)c(Cl)cc(Cl)c5F)c(F)c(c34)OC[C@H]2C1 (atropisomer, axis not shown) [Compound 11A]",0.052
12,C=C(F)C(=O)N1CCN2c3nc(=O)n(-c4c(C)ccnc4C(C)C)c4cc(-c5c(O)cccc5F)c(F)c(c34)OC[C@H]2C1 [Compound 5A],0.637
13,C=CC(=O)N1CCN(c2nc(=O)n(-c3c(C)ccnc3C(C)C)c3c(F)c(-c4c(O)cccc4F)ncc23)[C@@H](C)C1 [Compound 13],0.159

# Same assay, conditions: Homo sapiens, NCI-H358, 2 h, read-out: p-ERK IC50 (NCI H358, μM)
row,SMILES,IC50 [µM]
1,C=CC(=O)N1CCN(c2ncnc3c(F)c(-c4c(O)cccc4F)c(Cl)cc23)CC1 [ARS-1620],0.325

# Same assay, conditions: NCI-H358 cells, 2 hours of treatment, ELISA; read-out: p-ERK IC50 (NCI H358)
row,SMILES,IC50 [µM]
1,C=CC(=O)N1CCN2c3nc(=O)n(-c4c(C)ccnc4C(C)C)c4cc(-c5c(O)cccc5F)c(F)c(c34)OC[C@@H]2C1 [Compound 1],0.288
2,C=CC(=O)N1CCN2c3nc(=O)n(-c4c(C)ccnc4C(C)C)c4cc(-c5c(O)cccc5F)c(F)c(c34)OC[C@H]2C1 [Compound 2],0.1
3,C=CC(=O)N1CCN2c3nc(=O)n(-c4c(C)ccnc4C(C)C)c4cc(-c5c(O)cccc5F)c(F)c(c34)OC[C@@H]2C1 [Compound 1A],0.61
